Values after ≈ are worked out from the molar mass of the structure shown. Where two headings read alike, the source gives them in different places.
Key:
Candida albicans = experiment: MIC assay (Example 3); assay type: cell-based; conditions: for MIC: Candida albicans, SC5314, read-out: MIC against Candida albicans (SC5314)
Protocol: (§1) In vitro antifungal activity was assessed for all fungal strains in RPMI 1640 (Sigma-Aldrich R1383). MICs were measured using Clinical and Laboratory Standards Institute (CLSI) M38-A2 and M27-A3 standard in vitro antifungal susceptibility protocols. C. neoformans and A. fumigatus testing was performed at 37° C. MECs for A. fumigatus were recorded after 48 h of growth. C. albicans testing was performed at 30° C. with a uniform concentration of 2 μg/mL of fluconazole to sensitize the cells to calcineurin inhibition.
(§2) C. neoformans clinical isolate H99 and congenic-derived strain KN99α were used (see, Nielsen K, et al., 2003. Infect Immun 71:4831-4841). KN99α-derived frr1Δ deletion mutants with nourseothricin resistance markers as part of the Madhani deletion collection (NIH funding R01AI100272) were used. C. deneoformans strains used include JEC21 and derived C21F2 (CNB1-1) and C21F3 (frr1-3) strains (see, Odom A, et al., 1997. EMBO J 16:2576-2589; Moore T D, Edman J C. 1993. Mol Cell Biol 13:1962-1970; Fox D S, et al., 2001. Mol Microbiol 39:835-849). C. albicans strain SC5314 is the wild-type strain from which mutants YAG171 (rbp1/rbp1) and YAG237 (CNB1-1/CNB1) were derived (see, Cruz M C, et al., 2001. Antimicrob Agents Chemother 45:3162-3170). A. fumigatus strain akuB^Ku80 and a derived FKBP12 mutant fkbp12A were used during antifungal screening (see, Falloon K, et al., 2015. PLoS One 10:e0137869).

Cryptococcus neoformans = experiment: MIC assay (Example 3); assay type: cell-based; conditions: for antifungal activity at 37° C. versus 30° C.: C. neoformans; for MIC: Cryptococcus neoformans
Protocol: as §1, §2

[1] = system: IL-2 expression in primary mouse CD4+ T cells (mammalian calcineurin); experiment: In vitro immunosuppressive activity, IL-2 expression (Example 3); assay type: cell-based; conditions: 72 h
Protocol: Modifications at the C-22 position reduce inhibition of mammalian calcineurin signaling Mammalian calcineurin inhibition was then assessed and found to be reduced for these FK520 analogs. The inhibition of mammalian calcineurin was assessed by measuring the reduction of IL-2 expression from primary mouse CD4^+ T cells cultured in the presence of FK506, FK520, or an analog. Calcineurin activity is required for T cell activation and cytokine production, and IL-2 production serves as an effective measure of mammalian calcineurin activity. After culturing mouse CD4′ T cells for 72 h, IL-2 expression was analyzed by flow cytometry to evaluate the immunosuppressive activity of the analogs. […] However, compound concentrations that permit high IL-2 expression are less likely to result in cell death.
Spleen and lymph nodes from C57BL/6 mice were collected and homogenized through a 40-μm filter. Pan-CD4^+ T cells were enriched using the MagniSort Mouse CD4 T Cell Enrichment Kit (Invitrogen). Thereafter, CD4^+CD25^−CD62L^hiCD44^lo naïve CD4^+ T cells were FACS-sorted using a MoFlo Astrios cell sorter (Beckman Coulter). Naïve CD4^+ T cells were cultured in Iscove's Modified Dulbecco's Medium supplemented with 10% fetal bovine serum (FBS), penicillin (10 U/mL), streptomycin (10 μg/mL), glutamine (2 mM), gentamicin (50 μg/mL), and β-mercaptoethanol (55 μM). Cells were cultured for 72 h on anti-hamster IgG-coated plates with hamster anti-CD3s antibodies, hamster anti-CD28 antibodies, neutralizing anti-IL-4 antibodies, recombinant IL-12 (10 ng/mL), and recombinant IL-2 (50 U/mL). During this culture, cells were incubated with serially diluted drugs suspended in DMSO.

[2] = system: IL-2 expression in primary murine CD4+ T cells; experiment: In vitro immunosuppressive activity, IL-2 expression (Example 4); assay type: cell-based, mouse; conditions: Mus musculus, CD4+ T
Protocol: Spleen and lymph nodes were collected from C57BL/6 mice and homogenized through a 40 μm filter. Pan-CD4^+ T cells were enriched using MagniSort Mouse CD4 T cell Kit (eBioscience) according to the manufacturer's protocol. Thereafter, CD4+CD25−CD44lo CD62Lhi naïve T cells were FACS-sorted. The naïve CD4+ T cells were grown in Iscove's Modified Dulbecco's Medium (IMDM) supplemented with glutamine, penicillin, streptomycin, gentamicin, 2-mercaptoethanol, and 10% FBS. Cells were then cultured on anti-hamster IgG coated plates in the presence of hamster anti-CD3 epsilon and anti-CD28 antibodies (BD Biosciences), neutralizing anti-IL-4 antibody (eBioscience), recombinant IL-12 (10 ng/mL), and recombinant IL-2 (50 U/mL) for 72 h. During this period, cells were grown in the presence of 2× serially diluted FK506, FK520, or analog suspended in DMSO for 72 h. During the last 4 h of culture, phorbol 12-myristate 13-acetate (PMA; Sigma), ionomycin (Sigma), and GolgiStop (BD Biosciences) were added to the culture to facilitate detection of intracellular cytokines via flow cytometry.
Live cells were stained with FITC-conjugated anti-CD4 antibody (eBioscience) and Fixable Viability Dye eFluor 506 (eBioscience) on ice, followed by fixation and permeabilization using the Foxp3 Transcription Factor Staining Kit (eBioscience). Intracellular staining was performed at room temperature using PE-conjugated anti-IL-2 antibody (eBioscience), followed by analysis with a BD LSRFortessa X-20 flow cytometer.

Aspergillus fumigatus = experiment: MEC assay (Example 3)
[3] = MIC80, 30° C. with 2 μg/mL fluconazole
[4] = MIC90, 37° C., read-out: MIC against Cryptococcus neoformans (H99)

**Q.** How did the MIC (Candida albicans; [3]) turn out when `C=CCC1C=C(C)CC(C)CC(OC)C2OC(O)(C(=O)C(=O)N3CCCCC3C(=O)OC(C(C)=CC3CCC(O)C(OC)C3)C(C)C(O)CC1=O)C(C)CC2OC` (stereo not shown) [FK506, reference compound] was run?
**A.** 0.02 µg/mL (≈ 0.0249 µM)

**Q.** And the “antifungal activity at 37° C. versus 30° C.” value (Cryptococcus neoformans)?
**A.** potent antifungal activity against C. neoformans at 37 °C but not at 30 °C

**Q.** What about the MIC (Cryptococcus neoformans; [4]) of the same molecule?
**A.** 0.05 µg/mL (≈ 0.0622 µM)

**Q.** What about the MIC (Cryptococcus neoformans; Table 8, read-out: H99 MIC90) of the same molecule?
**A.** 0.05 µg/mL (≈ 0.0622 µM)

**Q.** What about the IC50 [1] of the same molecule?
**A.** 90 pM

**Q.** What about the IC50 ([2]; Table 12) of the same molecule?
**A.** 110 pM

**Q.** What about the “MEC against Aspergillus fumigatus (akuB^Ku80)” value (Aspergillus fumigatus; strain akuB^Ku80) of the same molecule?
**A.** 0.04 µg/mL

**Q.** Which results are given for `CC[C@@H]1/C=C(\C)C[C@H](C)C[C@H](OC)[C@H]2O[C@@](O)(C(=O)C(=O)N3CCCC[C@H]3C(=O)O[C@H](/C(C)=C/[C@@H]3CC[C@@H](O)[C@H](OC)C3)[C@H](C)[C@@H](O)CC1=O)[C@H](C)C[C@@H]2OC` [FK520, reference compound]?
**A.** MIC against Candida albicans (SC5314) (Candida albicans; [3]): 0.02 µg/mL (≈ 0.0253 µM); antifungal activity at 37° C. versus 30° C. (Cryptococcus neoformans): potent antifungal activity against C. neoformans at 37 °C but not at 30 °C; MIC against Cryptococcus neoformans (H99) (Cryptococcus neoformans; MIC90, 37° C.): 0.05 µg/mL (≈ 0.0631 µM); H99 MIC90 (Cryptococcus neoformans; Table 8): 0.05 µg/mL; IC50 [1]: 300 pM; IC50 ([2]; Table 12): 480 pM; MEC against Aspergillus fumigatus (akuB^Ku80) (Aspergillus fumigatus): 0.16 µg/mL

**Q.** `CC[C@@H]1/C=C(\C)C[C@H](C)C[C@H](OC)[C@H]2O[C@@](O)(C(=O)C(=O)N3CCCC[C@H]3C(=O)O[C@H](/C(C)=C/[C@@H]3CC[C@@H](O)[C@H](OC)C3)[C@H](C)[C@@H](O)C/C1=N/NC(C)=O)[C@H](C)C[C@@H]2OC` [JH-FK-05] was tested. Which IC50 ([2]; Table 13) did it give?
**A.** 20000 pM

**Q.** Which MIC/MEC (Candida albicans) does the source give for `CC[C@@H]1/C=C(\C)C[C@H](C)C[C@H](OC)[C@H]2O[C@@](O)(C(=O)C(=O)N3CCCC[C@H]3C(=O)O[C@H](/C(C)=C/C3CC[C@@H](O)[C@H](OC)C3)[C@H](C)[C@@H](O)C/C1=N/NC(=O)OC)[C@H](C)C[C@@H]2OC` (stereo partly shown) [JH-FK-08] here?
**A.** >25 µg/mL

**Q.** And the MIC (Candida albicans; [3])?
**A.** 0.4 µg/mL (≈ 0.463 µM)

**Q.** What about the “antifungal activity at 37° C. versus 30° C.” value (Cryptococcus neoformans) of the same molecule?
**A.** potent antifungal activity against C. neoformans at 37 °C but not at 30 °C

**Q.** What about the MIC (Cryptococcus neoformans; [4]) of the same molecule?
**A.** 0.8 µg/mL (≈ 0.926 µM)

**Q.** And the MIC (Cryptococcus neoformans; Table 8, read-out: H99 MIC90)?
**A.** 0.8 µg/mL (≈ 0.926 µM)

**Q.** What about the MIC/MEC (Cryptococcus neoformans; strain frr1Δ (KN99α frr1Δ::NAT), MIC90, 37° C.) of the same molecule?
**A.** >25 µg/mL

**Q.** What about the IC50 [1] of the same molecule?
**A.** 42600 pM

**Q.** What about the “MEC against Aspergillus fumigatus (akuB^Ku80)” value (Aspergillus fumigatus; strain akuB^Ku80) of the same molecule?
**A.** 1.3 µg/mL

**Q.** What about the MIC/MEC (Aspergillus fumigatus; strain akuB^Ku80) of the same molecule?
**A.** 1.25 µg/mL (≈ 1.45 µM)

**Q.** What about the MIC/MEC (Aspergillus fumigatus; strain Δfkbp12 (akuB^Ku80 fkbp12Δ)) of the same molecule?
**A.** >20 µg/mL

Source: US20260315446A1, “ANTIFUNGAL COMPOUNDS AND USES THEREOF” (priority 2023, published 2026)
